The target of this assay is T1, TRAP1 enzyme (Homo sapiens, UniProt Q12931).
T1 sequence (Q12931 60-704): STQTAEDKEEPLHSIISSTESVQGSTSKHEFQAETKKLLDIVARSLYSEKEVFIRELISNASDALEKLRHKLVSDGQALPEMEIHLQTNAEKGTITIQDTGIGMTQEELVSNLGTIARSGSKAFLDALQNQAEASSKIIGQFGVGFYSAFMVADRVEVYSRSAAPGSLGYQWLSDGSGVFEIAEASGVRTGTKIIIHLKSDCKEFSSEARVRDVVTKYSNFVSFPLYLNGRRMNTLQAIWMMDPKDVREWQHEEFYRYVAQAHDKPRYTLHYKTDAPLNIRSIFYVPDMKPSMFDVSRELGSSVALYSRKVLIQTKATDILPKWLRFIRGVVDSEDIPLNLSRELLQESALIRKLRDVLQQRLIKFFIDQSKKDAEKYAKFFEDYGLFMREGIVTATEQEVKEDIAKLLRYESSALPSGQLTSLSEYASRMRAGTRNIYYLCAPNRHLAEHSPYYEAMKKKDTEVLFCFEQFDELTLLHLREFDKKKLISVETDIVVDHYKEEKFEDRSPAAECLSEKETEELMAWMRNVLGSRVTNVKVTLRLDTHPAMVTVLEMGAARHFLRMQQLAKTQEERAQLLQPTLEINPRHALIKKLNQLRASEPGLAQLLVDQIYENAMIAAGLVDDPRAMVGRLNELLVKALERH
Nature of the assay: ADP Glo assay (ATPase activity of TRAP1). The format is biochemical. The following applies: for EC50: 150 nM Trap1, 20 µM ATP, concentration for half maximal activation, read-out: ADP GLO DRC: GeoMean EC50; for Emax: maximal percent activation, read-out: ADP GLO DRC: Mean Emax. As to the method: Potency of test compounds to modulate the ATPase activity of TRAP1 enzyme was evaluated using ADP Glo assay. The assay is based on quantification of the ADP generated from ATP in the ATPase reaction. The assay is performed in two steps; first, after the ATPase reaction, an equal volume of ADP-Glo™ Reagent is added to terminate the ATPase reaction and deplete the remaining ATP. Second, the Kinase Detection Reagent is added to simultaneously convert ADP to ATP and allow the newly synthesized ATP to be measured using a luciferase/luciferin reaction.
All the assays were carried out in a 384-well Proxiplate. The buffer used was 25 mM Pipes pH-7.5, 40 mM KCl, 0.05 mM MgCl2, 0.025 % BSA, 0.316 mM EGTA, 0.003% Empigen, 0.01% Igepal. 150 nM Trap1 enzyme was incubated with various concentrations of the test compound (0.79 µM - 100 µM) at 37° C. for 30 mins (except in blank wells). 20 µM ATP was added to each well to start the reaction. The plate was spun for 1 min at 1200 rpm and then incubated at 37° C. for 60 mins. 5 µl of ADP Glo reagent was added to all the wells and spun the plate for 1 min at 1200 rpm and kept it on a shaker at ambient temperature for 60 mins. 10 µl of kinase detection mix was added to all the wells and the plate was read for Luminescence at 495 nm. The amount of ADP released was estimated from ATP/ADP standard curve generated at the same experimental conditions. Emax (Maximal percent activation) and EC50 (concentration for half maximal activation ) were estimated by fitting the dose response data to a sigmoidal curve fitting equation using Graphpad Prism software V. 8.

Each structure is given as a SMILES string.

For `O=C(Nc1ccc2c(c1)S(=O)(=O)N(c1ccc(C(F)(F)F)cc1)CCO2)c1cscn1` [Compound 2184], the half-maximal effective concentration (EC50) (commonly the concentration that produces a half-maximal response) is less than 20 µM and the Emax (as a rule, the greatest response seen or fitted, relative to the assay's reference) was 129 to 149%.
The like results for `O=C(Nc1ccc2c(c1)S(=O)(=O)N(c1ccc(C(F)(F)F)cc1)CCO2)c1cc[nH]c(=O)c1` [Compound 2187] were, in that order, 30 to 100 µM and greater than 200%.
The like results for `O=C(Nc1ccc2c(c1)S(=O)(=O)N(c1ccc(C(F)(F)F)cc1)CCO2)c1cc(=O)cco1` [Compound 2190] were, in that order, 30 to 100 µM and greater than 200%.
The matching figures for `Cc1cncc(C(=O)Nc2ccc3c(c2)S(=O)(=O)N(c2ccc(C(F)(F)F)cc2)CCO3)c1` [Compound 2191]: less than 20 µM and 150 to 200%.
In the case of `CC(C)n1cc(C(=O)Nc2ccc3c(c2)S(=O)(=O)N(c2ccc(C(F)(F)F)cc2)CCO3)cn1` [Compound 2192], the EC50 lay in the range of 20 to 30 µM and the Emax lay within 129 to 149%.
The like results for `O=C(Nc1ccc2c(c1)S(=O)(=O)N(c1ccc(C(F)(F)F)cc1)CCO2)c1ccc(O)nn1` [Compound 2194] were, in that order, less than 20 µM and 129 to 149%.
As for `O=C(Nc1ccc2c(c1)S(=O)(=O)N(c1ccc(C(F)(F)F)cc1)CCO2)c1ccccn1` [Compound 2197], the EC50 lay in the range of 30 to 100 µM and the Emax lay in the range of 129 to 149%.
The matching figures for `O=C(Nc1ccc2c(c1)S(=O)(=O)N(c1ccc(C(F)(F)F)cc1)CCO2)c1c(F)cncc1F` [Compound 2198]: 20 to 30 µM and 150 to 200%.
As for `Cc1cnccc1C(=O)Nc1ccc2c(c1)S(=O)(=O)N(c1ccc(C(F)(F)F)cc1)CCO2` [Compound 2199], the EC50 lay in the range of 20 to 30 µM and the Emax lay in the range of 150 to 200%.
The matching figures for `Cc1ncc(C(=O)Nc2ccc3c(c2)S(=O)(=O)N(c2ccc(C(F)(F)F)cc2)CCO3)cn1` [Compound 2200]: 30 to 100 µM and 150 to 200%.
The matching figures for `CC(C)c1oncc1C(=O)Nc1ccc2c(c1)S(=O)(=O)N(c1ccc(C(F)(F)F)cc1)CCO2` [Compound 2202]: 30 to 100 µM and 150 to 200%.
The matching figures for `Cc1ncncc1C(=O)Nc1ccc2c(c1)S(=O)(=O)N(c1ccc(C(F)(F)F)cc1)CCO2` [Compound 2206]: 30 to 100 µM and 150 to 200%.
Turning to `COc1cnccc1C(=O)Nc1ccc2c(c1)S(=O)(=O)N(c1ccc(C(F)(F)F)cc1)CCO2` [Compound 2209], the EC50 is 20 to 30 µM and the Emax lay in the range of 129 to 149%.
Turning to `Cc1cnc(C(=O)Nc2ccc3c(c2)S(=O)(=O)N(c2ccc(C(F)(F)F)cc2)CCO3)nc1` [Compound 2210], the EC50 is less than 20 µM and the Emax was 150 to 200%.
The matching figures for `CCn1cncc1C(=O)Nc1ccc2c(c1)S(=O)(=O)N(c1ccc(C(F)(F)F)cc1)CCO2` [Compound 2213]: less than 20 µM and 150 to 200%.
The like results for `Cc1nccnc1C(=O)Nc1ccc2c(c1)S(=O)(=O)N(c1ccc(C(F)(F)F)cc1)CCO2` [Compound 2215] were, in that order, 30 to 100 µM and 129 to 149%.
In the case of `Cc1nn(C)cc1C(=O)Nc1ccc2c(c1)S(=O)(=O)N(c1ccc(C(F)(F)F)cc1)CCO2` [Compound 2219], the EC50 is 30 to 100 µM and the Emax was greater than 200%.
Consider `Cn1c(C(=O)Nc2ccc3c(c2)S(=O)(=O)N(c2ccc(C(F)(F)F)cc2)CCO3)cccc1=O` [Compound 2221], for which the EC50 was 30 to 100 µM and the Emax fell in the range of 150 to 200%.
The like results for `COc1cc(C(=O)Nc2ccc3c(c2)S(=O)(=O)N(c2ccc(C(F)(F)F)cc2)CCO3)n(C)n1` [Compound 2222] were, in that order, less than 20 µM and 150 to 200%.
With `O=C(Nc1ccc2c(c1)S(=O)(=O)N(c1ccc(C(F)(F)F)cc1)CCO2)c1cccnn1` [Compound 2224], the EC50 was 30 to 100 µM and the Emax was in the range of 150 to 200%.
The like results for `Cn1nncc1C(=O)Nc1ccc2c(c1)S(=O)(=O)N(c1ccc(C(F)(F)F)cc1)CCO2` [Compound 2226] were, in that order, 30 to 100 µM and 150 to 200%.
The like results for `Cc1nscc1C(=O)Nc1ccc2c(c1)S(=O)(=O)N(c1ccc(C(F)(F)F)cc1)CCO2` [Compound 2227] were, in that order, less than 20 µM and 129 to 149%.
Turning to `Cn1nc(C(=O)Nc2ccc3c(c2)S(=O)(=O)N(c2ccc(C(F)(F)F)cc2)CCO3)ccc1=O` [Compound 2228], the EC50 fell in the range of 20 to 30 µM and the Emax was in the range of 129 to 149%.
`COc1nccnc1C(=O)Nc1ccc2c(c1)S(=O)(=O)N(c1ccc(C(F)(F)F)cc1)CCO2` [Compound 2230]: the EC50 is 20 to 30 µM and the Emax was 150 to 200%.
The like results for `O=C(Nc1ccc2c(c1)S(=O)(=O)N(c1ccc(C(F)(F)F)cc1)CCO2)c1ccncc1` [Compound 2234] were, in that order, 20 to 30 µM and 150 to 200%.
The matching figures for `Cc1ncc(C(=O)Nc2ccc3c(c2)S(=O)(=O)N(c2ccc(C(F)(F)F)cc2)CCO3)c(C)n1` [Compound 2236]: 30 to 100 µM and 150 to 200%.
The matching figures for `O=C(Nc1ccc2c(c1)S(=O)(=O)N(c1ccc(C(F)(F)F)cc1)CCO2)c1cccnc1` [Compound 2240]: 30 to 100 µM and 150 to 200%.
Consider `Cn1cc(C(=O)Nc2ccc3c(c2)S(=O)(=O)N(c2ccc(C(F)(F)F)cc2)CCO3)cn1` [Compound 2241], for which the EC50 lay in the range of 20 to 30 µM and the Emax fell in the range of 150 to 200%.
The like results for `Cc1nnccc1C(=O)Nc1ccc2c(c1)S(=O)(=O)N(c1ccc(C(F)(F)F)cc1)CCO2` [Compound 2242] were, in that order, 30 to 100 µM and greater than 200%.
Regarding `COc1ncncc1C(=O)Nc1ccc2c(c1)S(=O)(=O)N(c1ccc(C(F)(F)F)cc1)CCO2` [Compound 2245], the 50% effective concentration (EC50) was in the range of 20 to 30 µM and the Emax was in the range of 129 to 149%.
Take `Cc1nc(C)c(C(=O)Nc2ccc3c(c2)S(=O)(=O)N(c2ccc(C(F)(F)F)cc2)CCO3)s1` [Compound 2248]: the EC50 fell in the range of 30 to 100 µM and the Emax is 150 to 200%.
The like results for `Cn1cnc(C(=O)Nc2ccc3c(c2)S(=O)(=O)N(c2ccc(C(F)(F)F)cc2)CCO3)c1` [Compound 2249] were, in that order, 30 to 100 µM and 150 to 200%.
The matching figures for `CCn1nccc1C(=O)Nc1ccc2c(c1)S(=O)(=O)N(c1ccc(C(F)(F)F)cc1)CCO2` [Compound 2254]: less than 20 µM and 129 to 149%.
On to `COCc1oncc1C(=O)Nc1ccc2c(c1)S(=O)(=O)N(c1ccc(C(F)(F)F)cc1)CCO2` [Compound 2257], for which the EC50 fell in the range of 30 to 100 µM and the Emax lay within 150 to 200%.
The like results for `CC(C)n1cnc(C(=O)Nc2ccc3c(c2)S(=O)(=O)N(c2ccc(C(F)(F)F)cc2)CCO3)n1` [Compound 2258] were, in that order, 20 to 30 µM and 129 to 149%.
The like results for `Cc1ccnc(C(=O)Nc2ccc3c(c2)S(=O)(=O)N(c2ccc(C(F)(F)F)cc2)CCO3)n1` [Compound 2261] were, in that order, 30 to 100 µM and 150 to 200%.
On to `O=C(Nc1ccc2c(c1)S(=O)(=O)N(c1ccc(C(F)(F)F)cc1)CCO2)c1cnccc1F` [Compound 2264], for which the EC50 was in the range of 20 to 30 µM and the Emax is 129 to 149%.
In the case of `CCc1nn(C)cc1C(=O)Nc1ccc2c(c1)S(=O)(=O)N(c1ccc(C(F)(F)F)cc1)CCO2` [Compound 2265], the EC50 was less than 20 µM and the Emax was in the range of 150 to 200%.
The matching figures for `Cn1cccc(C(=O)Nc2ccc3c(c2)S(=O)(=O)N(c2ccc(C(F)(F)F)cc2)CCO3)c1=O` [Compound 2268]: less than 20 µM and 150 to 200%.
For `Cc1cnncc1C(=O)Nc1ccc2c(c1)S(=O)(=O)N(c1ccc(C(F)(F)F)cc1)CCO2` [Compound 2275], the EC50 was in the range of 30 to 100 µM and the Emax was 150 to 200%.
The matching figures for `O=C(Nc1ccc2c(c1)S(=O)(=O)N(c1ccc(C(F)(F)F)cc1)CCO2)c1cccnc1O` [Compound 2280]: 30 to 100 µM and 150 to 200%.
The like results for `Cc1ncccc1C(=O)Nc1ccc2c(c1)S(=O)(=O)N(c1ccc(C(F)(F)F)cc1)CCO2` [Compound 2286] were, in that order, 30 to 100 µM and greater than 200%.

For the origin of these results see US20230218632A1, “CYCLIC SULFONAMIDE DERIVATIVES AS TRAP1 MODULATORS AND USES THEREOF” (Amathus Therapeutics, Inc., priority 2020, published 2023).
